This note sets out measurements from US8653048B2 (Sanlugen Pharmatech Ltd., priority 2009, dated 2014).

Data set [1] relates to HT29: a human colon cancer cell line. Nature of the data set: MTT analytical method, HT29 cells. Particulars: HT-29, 72 h. Format: cell-based. An excerpt:
(§1) MTT analytical method was used to test the prodrugs for various tumor cells.
(§2) • 1) Cell lines: NCI-H460, A549, LOVO, HT-29, MDA-MB-231, SGC7901, HepG2 or BEL-7402 cell lines. Culture: adherent culturing in D-MEM (Hyclone, Inc.) containing 10% fetal calf serum. The initial cell concentration was about 3×10^5 /mL. The cell was passaged by 1:3 dilution in every 2-3 days. On the day before the test, the cell was passaged by 1:2 dilution, the cell concentration for the test was 5-10×10^5 /mL. • 2) Dissolution and dilution of compounds: according to the weight and molecular weight of the drugs provided, 100-200 μL of DMSO was added. Then normal saline was added to make the final diluted concentration of the drugs be 5 mM (Note that the final concentration of DMSO should not be more than 10%). • 3) D-MEM or RPMI 1640 cell culture medium, Gibco, Inc. • 4) Fetal calf serum Hyclone, Inc. • 5) Cell dissociation buffer, 0.25% Trypsin+0.02% EDTA. • 6) MTT solution, MTT Powder (Sigma) were dissolved in PBS buffer solution to make a solution of 5 mg/mL. The solution was filtered by a 0.22 μm micropore membrane and stored at −20° C. • 7) PBS buffer solution. • 8) 10% acidified SDS, 0.01N HCl. • 9) Centrifuge tubes, haustorial tubes etc. (BD, Inc.); 96-well plates (Costatr, Inc.) Procedures: • 1) Cell inoculation: Cells grown for 24 hours after passage, which cells were in good growth state, were used. The cells were harvested by the routine method. The cell concentration was adjust with a fresh culture solution to 2×10^5/mL (for adherent cells)-3×10^5/mL (for suspension cells). The adherent cells were inoculated at 100 μL/well and then cultivated in an incubator with 5% CO2 at 37° C. for 24 h. Thereafter the used culture solution was removed and 95 μL/well of fresh culture solution was added. The suspension cells were inoculated at 95 μL/well directly. • 2) Drugs treatment: 9 concentration grades were designed for every drug, and every concentration had 3 wells. The control group had 5 wells. The control group was tested simultaneously in each test. The final concentrations of a drug added were […], and 5 μL normal saline was added to the control group. • 3) Cell culture and detection: the cells were cultured in an incubator with 5% CO2 at 37° C. for 72 h after the drug was added, then 10 μL MTT was added to each well and the culture was continued for 4 h. 100 μL of 10% SDS (containing 0.01N HCl) was added to each well. After 24 h, the absorbance (A) of each well was determined by Bio-rad 680 ELISA with the detection wavelength of 570 nm and the reference wavelength of 630 nm. Calculation:
(§3) First, the absorbance (A) of each well was averaged (removing any data with big difference). […] A0 was the mean absorbance of the control wells. The effect curve of the drug concentration was drawn using EXCEL software and the drug concentration for 50% cell survival was calculated according to an appropriate computing methods.
(In general: Formazan colour is commonly taken as a measure of viable cells.)

Data set [2] has as its system Bel7402: a human liver cancer cell line. Nature of the data set: MTT analytical method, Bel7402 cells. Format: cell-based. Particulars: Bel-7402, 72 h.
Source text: as §1, §2, §3

The subject of data set [3] is A549: a human lung cancer cell line. Nature of the data set: MTT analytical method, A549 cells. It is filed as cell-based. The settings on record: 72 h.
Source text: as §1, §2, §3

The subject of data set [4] is H460 cells, a human lung cancer cell line, inoculated in nude mice. Nature of the data set: H460 tumor in nude mice, oral administration of SL-01. Format: in vivo, Balb/c female nude mice. The settings on record: for Mean Volume of Tumor: Ftorafur 120 mg/kg gastric gavage. On the procedure: 1. […] Suspension formulation was prepared using 2.5% starch for intragastric administration. […] In the test, it was dissolved in normal saline and filtered with microfiltration membrane and administrated by tail vein injection. Positive control drug: Ftorafur (FT-207) produced by Qilu Pharmaceutical Co. Ltd., oral formulation.
2. Experimental animals: 50 Balb/c female nude mice at 4-5 weeks old, purchased from Peking University Health Science Center.
1. Culture of tumor cells: H460 cells were cultured in an incubator with 5% CO2 at 37° C. using RPMI-1640 nutrient solution containing 10% fetal calf serum. The cells were passaged through routine method.
2.2 Method of inoculating tumor cells in nude mice: cells were collected when they grew to about […] in culture flasks. Cells were washed twice with PBS before they were digested, then 1.5 mL of digestion solution juices was added into every bottle. They were observed under a microscope and the digestion was terminated after the cells were shed. Cell suspension was collected into 50 mL of centrifugal tube and centrifuged and washed twice with PBS. It was counted and suspended with 10 mL of normal saline to get the tumor cell suspension of inoculated nude mice. The tumor cells (1×10^7/0.2 mL) were inoculated in the left front armpits of mice. The tumor growth was observed after the inoculation.
4. Evaluation protocols for drug treating effect: these mice were weighed before drug administration and every week thereafter. The long tumor pathline (a) and the short tumor pathline (b) were measured at the same time. The formula for calculating the tumor volume is V=(a×b^2)/2. Mice were euthanized after drug administration for 3 weeks. The tumor was taken out and weighed. […] W was the tumor weight of the treatment group.

The term IC50 denotes the concentration that gives 50% inhibition. As for `CCCCCCCCCCCOC(=O)c1ccc(C(=O)Nc2ccn([C@@H]3O[C@H](CO)[C@@H](O)C3(F)F)c(=O)n2)s1` [Compound 21, Undecyl-5-((1-((2R,4R,5R)-3,3-difluoro-4-hydroxy-5-(hydroxymethyl)-tetrahydrofuran-2-yl)-2-oxo-1,2-dihydropyrimidin-4-yl)carbamoyl)thiophene-2-carboxylate], the IC50 was 24 µM in data set [1] and 43 µM in data set [2].

As to `CCCCCCCCCCCOC(=O)C1CCCCC1C(=O)Nc1ccn([C@@H]2O[C@H](CO)[C@@H](O)C2(F)F)c(=O)n1` (stereo partly drawn) [Compound 36, Undecyl-2-((1-((2R,4R,5R)-3,3-difluoro-4-hydroxy-5-(hydroxymethyl)-tetrahydrofuran-2-yl)-2-oxo-1,2-dihydropyrimidin-4-yl)carbamoyl)cyclohexanecarboxylate], the IC50 in data set [1] and in data set [2] was > 200 µM throughout.

Take `CCCCCCCCCCCOC(=O)c1ccc(C(=O)Nc2ccn([C@@H]3O[C@H](CO)[C@@H](O)C3(F)F)c(=O)n2)nc1` [Compound 10, Undecyl-6-((1-((2R,4R,5R)-3,3-difluoro-4-hydroxy-5-(hydroxymethyl)-tetrahydrofuran-2-yl)-2-oxo-1,2-dihydropyrimidin-4-yl)carbamoyl)nicotinate]: the values for the IC50 in data set [3], in data set [1] and in data set [2] were 13 µM, 4 µM and 30 µM, respectively.

Regarding `CCCCCCCCCCCOC(=O)c1ccnc(C(=O)Nc2ccn([C@@H]3O[C@H](CO)[C@@H](O)C3(F)F)c(=O)n2)c1` [Compound 28, Undecyl-2-((1-((2R,4R,5R)-3,3-difluoro-4-hydroxy-5-(hydroxymethyl)-tetrahydrofuran-2-yl)-2-oxo-1,2-dihydropyrimidin-4-yl)carbamoyl)isonicotinate], the 50% inhibitory concentration (IC50) in data set [3] is 8 µM; in data set [1] it was 2 µM; in data set [2] it was 8 µM.

Consider `O=c1[nH]c(=O)n(C2CCCO2)cc1F` (stereo not drawn) [FT-207, Ftorafur, reference compound], for which the “Mean Volume of Tumor” value is listed as 756.7 mm^3 in data set [4] (day 7), 1347.0 mm^3 in data set [4] (day 14), 1526.3 mm^3 in data set [4] (day 18) and 1779.4 mm^3 in data set [4] (day 22). The “Inhibition ratio (tumor weight)” value in data set [4] (Positive control (Ftorafur 120 mg/kg gavage)) is 38.5%. Also, the “Mean Weight of Nude Mice” value in data set [4] (Positive control (Ftorafur 120 mg/kg gavage), day 0) turned out to be 19.3 g; in data set [4] (Positive control (Ftorafur 120 mg/kg gavage), day 7), 19.5 g; in data set [4] (Positive control (Ftorafur 120 mg/kg gavage), day 14) it was 19.8 g; in data set [4] (Positive control (Ftorafur 120 mg/kg gavage), day 22) it was 19.7 g. Besides, in data set [4] (Positive control (Ftorafur 120 mg/kg gavage), end of the experiment), the “Tumor Weight, Average Value” is listed as 1.26 g. Further, the “efficacy by t-test, in words” value in data set [4] (positive control group (Ftorafur 120 mg/kg gavage)) is reported as “significant efficacy”.

As for `CCCCCCCCCCCOC(=O)c1ccccc1C(=O)Nc1ccn([C@@H]2O[C@H](CO)[C@@H](O)C2(F)F)c(=O)n1` [Compound 2, Undecyl-2-((1-((2R,4R,5R)-3,3-difluoro-4-hydroxy-5-(hydroxymethyl)-tetrahydrofuran-2-yl)-2-oxo-1,2-dihydropyrimidin-4-yl)carbamoyl)benzoate], the IC50 is > 200 µM in data set [1] and 162 µM in data set [2].

For the compound `CCCCCCCCCCCOC(=O)c1cccnc1C(=O)Nc1ccn([C@@H]2O[C@H](CO)[C@@H](O)C2(F)F)c(=O)n1` [Compound 14, Undecyl-2-((1-((2R,4R,5R)-3,3-difluoro-4-hydroxy-5-(hydroxymethyl)-tetrahydrofuran-2-yl)-2-oxo-1,2-dihydropyrimidin-4-yl)carbamoyl)nicotinate], the IC50 is 140 µM in data set [3], 35 µM in data set [1] and > 200 µM in data set [2].

For `CCCCCCCCCCCCOC(=O)c1cc(C(=O)Nc2ccn([C@@H]3O[C@H](CO)[C@@H](O)C3(F)F)c(=O)n2)[nH]n1` [Compound 31, Dodecyl-5-((1-((2R,4R,5R)-3,3-difluoro-4-hydroxy-5-(hydroxymethyl)-tetrahydrofuran-2-yl)-2-oxo-1,2-dihydropyrimidin-4-yl)carbamoyl)-1H-pyrazole-3-carboxylate], the IC50 stood at 21 µM in data set [3], 7 µM in data set [1] and 30 µM in data set [2].

As to `CCCCCCCCCCCCOC(=O)c1ncccc1C(=O)Nc1ccn([C@@H]2O[C@H](CO)[C@@H](O)C2(F)F)c(=O)n1` [Compound 12, Dodecyl-3-((1-((2R,4R,5R)-3,3-difluoro-4-hydroxy-5-(hydroxymethyl)-tetrahydrofuran-2-yl)-2-oxo-1,2-dihydropyrimidin-4-yl)carbamoyl)picolinate], the IC50 worked out at 20 µM in data set [1] and 60 µM in data set [2].

Take `CCCCCCCCCCOC(=O)c1cccc(C(=O)Nc2ccn([C@@H]3O[C@H](CO)[C@@H](O)C3(F)F)c(=O)n2)c1` [Compound 6, Decyl-3-((1-((2R,4R,5R)-3,3-difluoro-4-hydroxy-5-(hydroxymethyl)-tetrahydrofuran-2-yl)-2-oxo-1,2-dihydropyrimidin-4-yl)carbamoyl)benzoate]: the figures for the IC50 in data set [1] and in data set [2] were 13 µM and 30 µM, respectively.

For the compound `CCCCCCCCCCCCCCCCOC(=O)c1ccccc1C(=O)Nc1ccn([C@@H]2O[C@H](CO)[C@@H](O)C2(F)F)c(=O)n1` [Compound 3, Hexadecyl-2-((1-((2R,4R,5R)-3,3-difluoro-4-hydroxy-5-(hydroxymethyl)-tetrahydrofuran-2-yl)-2-oxo-1,2-dihydropyrimidin-4-yl)carbamoyl)benzoate], the IC50 came to 10 µM in data set [1] and 60 µM in data set [2].

Regarding `CCCCCCCCCCCOC(=O)c1cccc(C(=O)Nc2ccn([C@@H]3O[C@H](CO)[C@@H](O)C3(F)F)c(=O)n2)c1` [Compound 7, Undecyl-3-((1-((2R,4R,5R)-3,3-difluoro-4-hydroxy-5-(hydroxymethyl)-tetrahydrofuran-2-yl)-2-oxo-1,2-dihydropyrimidin-4-yl)carbamoyl)benzoate], the IC50 in data set [1] stood at 80 µM; in data set [2], 125 µM.

On to `CCCCCCCCCCCOC(=O)c1cccc(C(=O)Nc2ccn([C@@H]3O[C@H](CO)[C@@H](O)C3(F)F)c(=O)n2)n1` [Compound 19, Undecyl-6-((1-((2R,4R,5R)-3,3-difluoro-4-hydroxy-5-(hydroxymethyl)-tetrahydrofuran-2-yl)-2-oxo-1,2-dihydropyrimidin-4-yl)carbamoyl)picolinate], for which the IC50 in data set [1] was 25 µM; in data set [2] it was 46 µM.
